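Following 48 hours of exposure in 96-well plates, responses at five concentrations were used to interpolate endpoints linearly. GI50 = concentration required for 50% inhibition of growth. TGI denotes the concentration required for complete inhibition of growth.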
Legend:
Assay in all cases: growth of human tumour cells (NCI), 48 h
[1] = test system: 786-0 renal
[2] = test system: A498 renal
[3] = test system: A549 NSCLC
[4] = test system: ACHN renal
[5] = test system: BT-549 breast
[6] = test system: CAKI-1 renal
[7] = test system: CCRF-CEM leukemia
[8] = test system: COLO 205 colon
[9] = test system: DU-145 prostate
[10] = test system: EKVX NSCLC
[11] = test system: HCC-2998 colon
[12] = test system: HCT-116 colon
[13] = test system: HCT-15 colon
[14] = test system: HL-60(TB) leukemia
[15] = test system: HOP-62 NSCLC
[16] = test system: HOP-92 NSCLC
[17] = test system: HS 578T breast
[18] = test system: HT29 colon
[19] = test system: IGROV1 ovarian
[20] = test system: K-562 leukemia
[21] = test system: KM12 colon
[22] = test system: LOX IMVI melanoma
[23] = test system: M14 melanoma
[24] = test system: MALME-3M melanoma
[25] = test system: MCF7 breast
[26] = test system: MDA-MB-231 breast
[27] = test system: MDA-MB-435
[28] = test system: MOLT-4 leukemia
[29] = test system: NCI-H226 lung
[30] = test system: NCI-H23 lung
[31] = test system: NCI-H460 lung
[32] = test system: NCI-H522 lung
[33] = test system: NCI/ADR-RES ovarian
[34] = test system: OVCAR-3 ovarian
[35] = test system: OVCAR-4 ovarian
[36] = test system: OVCAR-5 ovarian
[37] = test system: OVCAR-8 ovarian
[38] = test system: PC-3 prostate
[39] = test system: RPMI-8226 leukemia
[40] = test system: RXF 393 renal
[41] = test system: SF-268 CNS
[42] = test system: SF-295 CNS
[43] = test system: SF-539 CNS
[44] = test system: SK-MEL-2 melanoma
[45] = test system: SK-MEL-28 melanoma
[46] = test system: SK-MEL-5 melanoma
[47] = test system: SK-OV-3 ovarian
[48] = test system: SN12C renal
[49] = test system: SNB-19 CNS
[50] = test system: SNB-75 CNS
[51] = test system: SR leukemia
[52] = test system: SW-620 colon
[53] = test system: T-47D breast
[54] = test system: TK-10 renal
[55] = test system: U251 CNS
[56] = test system: UACC-257 melanoma
[57] = test system: UACC-62 melanoma
[58] = test system: UO-31 renal

SMILES: O=C(/C=C/c1ccc(Cl)cc1Cl)c1ccc(Cl)cc1Cl
- GI50 [1]: 22 µM
- TGI [1]: 61.8 µM
- GI50 [2]: 20.7 µM
- TGI [2]: 48.5 µM
- GI50 [3]: 19.9 µM
- TGI [3]: 47.2 µM
- GI50 [4]: 22.1 µM
- TGI [4]: 47.9 µM
- GI50 [5]: 16 µM
- TGI [5]: 36.1 µM
- GI50 [6]: 36 µM
- TGI [6]: > 92.8 µM
- GI50 [7]: 9.14 µM
- TGI [7]: 32.8 µM
- GI50 [8]: 20.8 µM
- TGI [8]: > 65.4 µM
- GI50 [9]: 29.5 µM
- TGI [9]: > 100 µM
- GI50 [10]: 20.6 µM
- TGI [10]: 58.7 µM
- GI50 [11]: 23.7 µM
- TGI [11]: > 70.5 µM
- GI50 [12]: 5.82 µM
- TGI [12]: 17.1 µM
- GI50 [13]: 14.4 µM
- TGI [13]: 31 µM
- GI50 [14]: 18.3 µM
- TGI [14]: 43.9 µM
- GI50 [15]: 26.1 µM
- TGI [15]: > 68.9 µM
- GI50 [16]: 50.8 µM
- TGI [16]: > 76.1 µM
- GI50 [17]: 20.1 µM
- TGI [17]: 58.2 µM
- GI50 [18]: 15.2 µM
- TGI [18]: > 60.1 µM
- GI50 [19]: 22.3 µM
- TGI [19]: 55.8 µM
- GI50 [20]: 10.4 µM
- TGI [20]: 31.4 µM
- GI50 [21]: 13.5 µM
- TGI [21]: 30.4 µM
- GI50 [22]: 15.8 µM
- TGI [22]: 30.1 µM
- GI50 [23]: 18.7 µM
- TGI [23]: 46.3 µM
- GI50 [24]: 13.9 µM
- TGI [24]: 35.6 µM
- GI50 [25]: 7.88 µM
- TGI [25]: > 24 µM
- GI50 [26]: 4.5 µM
- TGI [26]: 27 µM
- GI50 [27]: 16.7 µM
- TGI [27]: 35.3 µM
- GI50 [28]: 6.11 µM
- TGI [28]: 14.9 µM
- GI50 [29]: 19.9 µM
- TGI [29]: 40.8 µM
- GI50 [30]: 20.5 µM
- TGI [30]: 67.2 µM
- GI50 [31]: 42.1 µM
- TGI [31]: > 100 µM
- TGI [32]: 1.16 µM
- GI50 [33]: 25.1 µM
- TGI [33]: > 77.2 µM
- GI50 [34]: 20.6 µM
- TGI [34]: 48.1 µM
- GI50 [35]: 26.6 µM
- TGI [35]: 88.5 µM
- GI50 [36]: 21.7 µM
- TGI [36]: 49.1 µM
- GI50 [37]: 16.6 µM
- TGI [37]: 39.6 µM
- GI50 [38]: 24.4 µM
- TGI [38]: 64.3 µM
- GI50 [39]: 4.22 µM
- TGI [39]: 17.8 µM
- GI50 [40]: 16.7 µM
- TGI [40]: 36.3 µM
- GI50 [41]: > 63.3 µM
- TGI [41]: > 100 µM
- GI50 [42]: 18.7 µM
- TGI [42]: 47.7 µM
- GI50 [43]: 20.7 µM
- TGI [43]: > 54.9 µM
- GI50 [44]: 1.63 µM
- GI50 [45]: 27.2 µM
- TGI [45]: > 74.4 µM
- GI50 [46]: 16.7 µM
- TGI [46]: 36.4 µM
- GI50 [47]: 37.8 µM
- TGI [47]: > 100 µM
- TGI [48]: 24.8 µM
- GI50 [49]: 29 µM
- TGI [49]: > 100 µM
- GI50 [50]: 40.5 µM
- TGI [50]: > 100 µM
- GI50 [51]: 3.33 µM
- TGI [51]: 14.9 µM
- GI50 [52]: 9.22 µM
- TGI [52]: 47.3 µM
- GI50 [53]: 24.2 µM
- TGI [53]: > 72.7 µM
- GI50 [54]: 28 µM
- TGI [54]: > 73.2 µM
- GI50 [55]: 14.1 µM
- TGI [55]: 34.1 µM
- GI50 [56]: 21.7 µM
- TGI [56]: 55.3 µM
- GI50 [57]: 1.52 µM
- TGI [57]: 12.1 µM
- GI50 [58]: 15 µM
- TGI [58]: > 44.8 µM
